{"source": "paper PMC12340957", "about": "“Interactions between Lipopolysaccharide and Peptide Bacteriocin BacSp222 Influence Their Biological Activities” (ACS Infectious Diseases, 2025)", "key": {"[1]": {"test_system": "ATCC 25923, ATCC 29663, ATCC 6633, and ATCC 4698", "assay": "Residual bactericidal activity, radial diffusion assay", "assay_type": "cell-based", "settings": "10 or 50 μM BacSp222, 16 h, n = 3", "procedure": "The residual bactericidal activity of BacSp222 after preincubation with different LPS serotypes and at different mass proportions was determined using radial diffusion assay toward the following bacteria: ATCC 25923, ATCC 29663, ATCC 6633, and ATCC 4698. BacSp222 at final concentrations of 10 μM (for and ) or 50 μM (for and ) was preincubated in PBS without Ca^2+ and Mg^2+ for 15 min at 37 °C with LPS O55:B5 (IEC) or O111:B4 (PE and IEC) at proportions equivalent to 1:1 or 1:17 mass ratios (BacSp222:LPS). After preincubation, 5 μL aliquots of the solutions were dispensed as drops at different sites of soft Mueller–Hinton Broth II (MHBII, Merck, Darmstadt, Germany) plates containing 0.75% (w/v) agarose and a suspension of the tested bacteria strains. After liquid preparations were entered into the solid medium, the plates were incubated at 37 °C for 16 h, and the antibacterial activity of the studied samples was determined as the diameter of the bacterial growth inhibition zone. In each experiment, the appropriate controls were applied on the plate, and they comprised adequate amounts of BacSp222 and LPS not incubated together."}, "hemolymph phenoloxidase": {"test_system": "hemolymph phenoloxidase", "assay": "Hemolymph phenoloxidase (PO) activation in larvae", "assay_type": "in vivo, greater wax moth", "settings": "for PO activity after BacSp222 alone: 5 μL injection", "procedure": "The experiments were based on a previously published protocol. The greater wax moth was reared in the dark on honeybee nest debris at 28 °C and 70% humidity. Last instar larvae were used for the experiments. To test the activation of the phenoloxidase (PO) system by LPS, larvae were divided into groups of 10 insects. One group was injected with PBS buffer without Ca^2+ and Mg^2+, the other one with 1 μg of LPS O55:B5 (IEC) diluted in PBS, and the next one with the mixture of 1 μg of LPS and BacSp222 at concentrations 3, 6, or 30 μM. The last group was treated with the bacteriocin alone at the same concentrations. Before injection, all prepared solutions were preincubated for 30 min at 30 °C for possible complex formation, while the puncture surface of each larva was disinfected with 70% ethanol. Injection was done in the last but one proleg by a Hamilton syringe at a volume of 5 μL. After injection, the larvae were placed in Petri dishes on sterile filter paper. Bleeding larvae were excluded from the experiment. […]\nThe assay was performed similarly to the previous papers. , The hemolymph was diluted 5 times in apyrogenic water, and 2 μL of this dilution was added to 18 μL of buffer A (50 mM Tris–HCl pH 7.4, 150 mM NaCl, 5 mM CaCl2) in a 96-well plate. After 20 min of preincubation at room temperature, 180 μL of a 2 mM solution of 3,4-dihydroxy- L -phenylalanine (L-DOPA) in buffer B (50 mM Na2HPO4, 50 mM NaH2PO4; pH 6.5) was added, and then, the absorbance at 490 nm was measured immediately (time 0) at the indicated time-points. […]\nAll experiments were conducted three times independently, except for the DLS and ITC measurements, which were performed once and twice, respectively. […] For experiments concerning measurements of TNF, NO, cellular metabolic activity, TLRs activation, and LAL assay, the statistical significance of differences between the particular result and control was calculated using a two-way ANOVA with Tukey’s multiple comparison test as a posthoc test and shown in figures as asterisks *, **, or ***, indicating p < 0.05, p < 0.01, and p < 0.001, respectively. […]"}, "[2]": {"assay": "Gel filtration of LPS, BacSp222 and complexes", "assay_type": "physicochemical", "procedure": "Gel filtration was conducted on a Superdex 200 Increase 10/300 GL (Cytiva, Marlborough, MA, USA) column using an UltiMate 3000 HPLC apparatus (Thermo, Waltham, MA, USA). The separations were performed at room temperature in 50 mM NH4COOH pH 5.8 at a flow rate of 0.6 mL/min. The spectrophotometric detection was conducted at 215 and 280 nm, and before separations, the column was calibrated using tryptophan (204 Da), […] (75 kDa), aldolase (158 kDa), ferritin (440 kDa), and Blue Dextran 2000 (2 MDa). The following samples were separated: (1) 375 μg of LPS O55:B5 (IEC), (2) 375 μg of LPS O111:B4 (PE), (3) 75 μg of BacSp222, (4) 375 μg of LPS O55:B5 (IEC) + 75 μg BacSp222, and (5) 375 μg of LPS O111:B4 (PE) + 75 μg BacSp222. All above solutions were prepared in phosphate-buffered saline (PBS) without Ca^2+ and Mg^2+ (Gibco, Paisley, UK) and were preincubated before separation for 15 min at 37 °C. The fractions containing LPS O55:B5 alone and LPS-BacSp222 complex, visible as peaks eluting at 12.5–14 min and 12.5–16 min, both marked by arrows in Figure , were manually collected, freeze-dried, and subjected to sodium dodecyl sulfate polyacrylamide gel electrophoresis (SDS-PAGE) under reducing conditions. […]"}}, "note": "Ends that are not written are not given here. * marks the point of attachment. For = O=C*", "data": [{"substance": "For-MAGLLRFLLSKGRALYNWAKSHVGKVWEWLKSGATYEQIKEWIENALGWR [BacSp222]", "values": [{"measurement": "effect of LPS on bactericidal potential of BacSp222", "setting": "[1]; 17-fold mass excess of LPS (1:17), all strains but one exception", "value": "completely inhibited the killing potential of BacSp222"}, {"measurement": "effect of LPS on bactericidal potential of BacSp222", "setting": "[1]; BacSp222:LPS 1:1 mass ratio, all LPS preparations, all four strains, preincubated 15 min 37 °C, peptide referred to as \"bacteriocin\"/\"the peptide\"", "value": "only marginally reduces the bactericidal potential of the peptide"}, {"measurement": "PO activity after BacSp222 alone", "setting": "hemolymph phenoloxidase; 3 μM BacSp222 alone (printed \"bacteriocin alone\")", "value": "PO activity at a similar level as the injection of PBS buffer"}, {"measurement": "inhibition of LPS-induced PO activation", "setting": "hemolymph phenoloxidase; 3 μM BacSp222 preincubated (30 min, 30 °C) and coinjected with 1 μg LPS O55:B5 (IEC), n = 3, printed \"inhibited ... to about 50%\"", "value": "about 50%"}, {"measurement": "PO activity after BacSp222 alone", "setting": "hemolymph phenoloxidase; 6 μM BacSp222 alone", "value": "induced PO activity"}, {"measurement": "BacSp222 peak at 36 min after incubation with LPS", "setting": "[2]; 375 μg LPS + 75 μg BacSp222, 15 min, 37 °C, peptide referred to as \"the bacteriocin\"", "value": "disappears completely"}, {"measurement": "apparent molecular mass, gel filtration (peptide peak)", "setting": "[2]; peak at 36 min, Superdex 200 Increase, 50 mM NH4COOH pH 5.8, 0.6 mL/min, 215 nm, room temperature", "value": 5.5, "unit": "kDa"}]}]}
